For series [1] the following is noted: substrates of efflux transporters ABCB1 (P-gp) and/or ABCG2 (BCRP) ref 27, 28; cited from earlier work.
In another series the target is T1, ABCG2 (BCRP) (Homo sapiens, UniProt Q9UNQ0).
T1 construct: Apparent permeability (Papp) was determined in the Caco-2 human colon carcinoma cell line; endogenous in cells; host or cells: Caco-2
T1 sequence (Q9UNQ0 1-655): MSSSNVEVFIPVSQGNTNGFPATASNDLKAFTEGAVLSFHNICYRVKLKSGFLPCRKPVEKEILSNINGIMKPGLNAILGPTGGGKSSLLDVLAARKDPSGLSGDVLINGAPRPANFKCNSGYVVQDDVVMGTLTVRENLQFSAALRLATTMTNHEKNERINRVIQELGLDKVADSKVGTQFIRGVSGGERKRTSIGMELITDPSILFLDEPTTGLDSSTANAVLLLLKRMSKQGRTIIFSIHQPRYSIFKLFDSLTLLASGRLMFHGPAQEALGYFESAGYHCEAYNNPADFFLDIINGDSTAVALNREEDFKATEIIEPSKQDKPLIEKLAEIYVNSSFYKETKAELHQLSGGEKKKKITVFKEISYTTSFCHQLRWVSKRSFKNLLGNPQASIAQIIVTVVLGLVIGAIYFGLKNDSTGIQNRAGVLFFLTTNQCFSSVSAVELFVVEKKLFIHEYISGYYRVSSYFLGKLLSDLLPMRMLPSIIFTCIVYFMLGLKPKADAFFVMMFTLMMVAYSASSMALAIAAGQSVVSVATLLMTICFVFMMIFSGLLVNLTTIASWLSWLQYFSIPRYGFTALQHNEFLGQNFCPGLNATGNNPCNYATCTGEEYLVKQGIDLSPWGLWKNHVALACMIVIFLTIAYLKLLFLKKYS
The experiment in a line: Caco-2 permeability assay with BCRP substrate E3S. Format: in vitro ADME. Conditions: for interaction with BCRP / B–A apparent permeability of control substrate: Caco-2. For orientation: Passage across Caco-2 layers is used to estimate intestinal permeability.

A short description of series [2]: Vandetanib brain concentration in non-tumor-bearing mice (LC-MS/MS). Format: in vivo, mouse. To be noted: with everolimus compared with vandetanib alone, P = 0.0854.
Procedure: Plasma and brain tissue samples were taken in triplicate at 1 hour after the last dose. Analysis was carried out by LC-MS/MS using a Xevo TQS coupled with an Acquity UPLC H-class system (Waters). Chromatography was carried out using a Phenomenex C18 X-B column (2.6 μm, 50 × 2.1 mm). Data acquisition was performed using Targetlynx, version 4.1, and modeling was carried out using Phoenix WinNonlin version 6.3.
Series [3] can be described thus: Vandetanib concentration in brain and tumor of nude mice. Format: in vivo. To be noted: female, athymic nude, mouse, intraperitoneal, combined with everolimus.
Procedure: (§1) Both patient-derived H3F3A^K27M, ACVR1^R206H HSJD-DIPG-007 cells and those derived from a Nestin-Tv-a; Trp53^fl/fl; Hist1h3b^K27M, Acvr1^R206H ([14]) GEMM were used for orthotopic implantation. A single-cell suspension of each culture was made the day before implantation and cultured overnight. On the implantation day, small tumorspheres in exponential growth were harvested by mild centrifugation. Three-week-old female athymic mice were anesthetized with 100 mg/kg ketamine and 10 mg/kg xylazine and immobilized in a stereotaxic apparatus (Stoelting) at coordinates x+0.5 and y−5.4 from the bregma suture. HSJD-DIPG-007 tumorspheres (5 × 10^5 cells), suspended in 5 μL Matrigel (BD Biosciences), were injected at a 3.1-mm depth (targeting the fourth ventricle) with a dull 22-gauge needle attached to a 50-μL syringe (Hamilton), using a stereotaxic arm. The animals (n = 72) were divided in four groups, with treatment starting 4 weeks (day 25) after tumor inoculation. […] Mice were monitored by daily weighing and sacrificed by decapitation upon deterioration of condition or 20% weight loss from the maximum weight achieved, with tissue taken for further analysis. Mouse brains collected at the end of the efficacy study were processed for IHC. […]
Series [4] in a line: Vandetanib concentration in brain and tumor of NSG mice. Format: in vivo. Conditions: mouse, intraperitoneal, combined with everolimus.
Procedure: as §1
Series [5] addresses T2, ABCB1 (P-gp) (Homo sapiens, UniProt P08183). Conditions: Caco-2.
Procedure: (§2) Apparent permeability (Papp) was determined in the Caco-2 human colon carcinoma cell line. Cells were maintained (DMEM with 10% FBS, penicillin, and streptomycin) in a humidified atmosphere with 5%CO2/95% air for 10 days. Cells were plated out onto a cell culture assembly plate (Millipore), and monolayer confluency was checked using a transepithelial electrical resistance (TEER) electrode prior to the assay. Media were washed off and replaced in the appropriate apical and basal wells with Hank's Balanced Salt Solution buffer (pH 7.4). […] LY335979 (P-gp inhibitor) and Ko134 (BCRP inhibitor) were used as positive controls. The Caco-2 plate was incubated for 2 hours at 37°C in a humidified atmosphere with 5% CO2, and Lucifer yellow was used to confirm membrane integrity after the assay. Samples from the apical and basolateral chambers were analyzed using reverse chromatography tandem mass spectrometry on a Waters TQ-S.
For series [6] the following is noted: cited from earlier work.
For series [7] the following is noted: with everolimus to inhibit P-gp and BCRP ref 41; cited from earlier work.
Another series has as its system DIPG. Conditions: cited from earlier work.
Series [8] deals with ACVR1-mutant and wild-type patient-derived DIPG cells. The experiment in a line: Single-agent cell viability in patient-derived DIPG cells. Conditions: in vitro; P = 0.0272.
Procedure: Cells were plated at a density of 2,000 to 4,000 cells/well on laminin-coated 96-well plates in a minimum of triplicates. After 3 days of incubation, compounds were added to each well and incubated at 37°C in 5% CO2, 95% humidity for 8 days (192 hours). […] Cell viability was assessed by the CellTiter-Glo luminescent cell viability assay (Promega).
The conditions of series [9]: up to 70 mg weekly ref 54; cited from earlier work.
The target in series [10] is T2, ABCB1 (P-gp). The experiment in a line: Caco-2 permeability assay with P-gp substrate indinavir.
Procedure: as §2

Where two headings read alike, the source gives them in different places.

T2 sequence (P08183 whole entry): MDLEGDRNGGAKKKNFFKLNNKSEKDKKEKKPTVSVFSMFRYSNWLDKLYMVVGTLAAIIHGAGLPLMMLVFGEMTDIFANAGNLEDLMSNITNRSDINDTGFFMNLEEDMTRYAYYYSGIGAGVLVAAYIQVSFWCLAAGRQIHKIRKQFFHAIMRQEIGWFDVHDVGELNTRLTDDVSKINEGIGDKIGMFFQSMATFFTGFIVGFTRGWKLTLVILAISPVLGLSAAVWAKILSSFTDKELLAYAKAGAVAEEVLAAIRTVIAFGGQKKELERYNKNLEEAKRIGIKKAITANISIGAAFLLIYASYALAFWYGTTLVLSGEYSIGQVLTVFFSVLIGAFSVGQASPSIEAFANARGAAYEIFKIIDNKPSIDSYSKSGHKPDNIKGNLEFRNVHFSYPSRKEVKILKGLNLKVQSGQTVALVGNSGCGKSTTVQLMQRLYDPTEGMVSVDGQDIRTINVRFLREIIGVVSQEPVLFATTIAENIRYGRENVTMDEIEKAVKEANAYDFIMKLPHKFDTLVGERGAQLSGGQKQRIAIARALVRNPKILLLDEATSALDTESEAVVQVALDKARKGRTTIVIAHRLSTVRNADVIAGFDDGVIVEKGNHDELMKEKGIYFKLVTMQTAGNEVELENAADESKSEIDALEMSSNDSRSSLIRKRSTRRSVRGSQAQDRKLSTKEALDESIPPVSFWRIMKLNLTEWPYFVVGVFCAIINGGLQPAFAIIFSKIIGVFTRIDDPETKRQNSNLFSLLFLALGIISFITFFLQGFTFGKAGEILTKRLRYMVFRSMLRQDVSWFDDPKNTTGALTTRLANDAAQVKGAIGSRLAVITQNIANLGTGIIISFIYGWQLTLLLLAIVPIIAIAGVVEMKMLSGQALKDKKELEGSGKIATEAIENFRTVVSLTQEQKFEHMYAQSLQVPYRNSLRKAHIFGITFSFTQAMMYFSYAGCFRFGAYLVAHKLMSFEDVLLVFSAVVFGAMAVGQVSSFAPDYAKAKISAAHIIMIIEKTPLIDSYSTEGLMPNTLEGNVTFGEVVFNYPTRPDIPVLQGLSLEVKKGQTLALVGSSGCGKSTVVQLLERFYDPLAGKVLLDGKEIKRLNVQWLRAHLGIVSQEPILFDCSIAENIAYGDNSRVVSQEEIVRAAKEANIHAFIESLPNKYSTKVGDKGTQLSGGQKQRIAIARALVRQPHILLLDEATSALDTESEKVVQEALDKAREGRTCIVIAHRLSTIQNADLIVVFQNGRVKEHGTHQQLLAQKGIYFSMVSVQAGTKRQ
Procedure for ABCG2 (BCRP): as §2

Consider `C[C@@H](Oc1cc(-c2cnn(C3CCNCC3)c2)cnc1N)c1c(Cl)ccc(F)c1Cl` [crizotinib], for which, in [1], the brain exposure result is given as “insufficient brain exposures”.

Turning to `COc1cc2c(Nc3ccc(Br)cc3F)ncnc2cc1OCC1CCN(C)CC1` [vandetanib], the “interaction with BCRP / B–A apparent permeability of control substrate” value on ABCG2 (BCRP) is listed as “weak interactions”. Also, the “effect of adding vandetanib to everolimus on BCRP substrate permeability” value on ABCG2 (BCRP) (Caco-2, combination) is recorded as “no effect”. In series [2], the “increase of median brain concentration of vandetanib” value came to 56%. Also, in series [3] (normal brain), the concentration at 2 h is over 15 µM. Moreover, in series [3] (tumour (PDX)), the concentration at 2 h was over 15 µM. For the same compound, in [4] (normal brain), the concentration at 2 h amounted to 10 µM. Besides, in [4] (tumour (GEMM allograft)), the concentration at 2 h was under 5 µM. The “interaction with P-gp / B–A apparent permeability of control substrate” value on ABCB1 (P-gp) [5] was “weak interactions”. Moreover, the “MTD and recommended phase II dose of vandetanib” value in [6] (in combination with everolimus ref 42) is reported as 300 mg once daily. In series [7], the “vandetanib brain concentrations in mice” value was “significantly increased”. Moreover, in the series on DIPG (in vivo), the “DLT (diarrhea grade 3)” value is given as “one”; the RP2D is reported as 145 mg/m^2/d; the “patients with grade 4 hypertension and posterior reversible encephalopathy syndrome” value is listed as “two”. Also, in the series on DIPG (single agent ref 32), the “2-year OS” value is listed as 21.4%, the MTD entry is reported as “not reached” and the objective responses result is given as “no objective responses”. The brain exposure entry in series [1] is “insufficient brain exposures”. The “enhanced difference in cell viability, ACVR1-mutant compared with wild-type DIPG cells” value in series [8] is on record as “approximately twofold”.

With `CO[C@H]1C[C@@H]2CC[C@@H](C)[C@@](O)(O2)C(=O)C(=O)N2CCCC[C@H]2C(=O)O[C@H]([C@H](C)C[C@@H]2CC[C@@H](OCCO)[C@H](OC)C2)CC(=O)[C@H](C)/C=C(\C)[C@@H](O)[C@@H](OC)C(=O)[C@H](C)C[C@H](C)/C=C/C=C/C=C/1C` [everolimus], the “interaction with BCRP / B–A apparent permeability of control substrate” value at ABCG2 (BCRP) is “significantly decreased”. For the same compound, in series [6] (in combination with vandetanib ref 42), the “MTD and recommended phase II dose of everolimus” value is 10 mg once daily. In addition, in series [9], the “mean peak levels compared with standard regimens” value was “tenfold higher” and the “tolerability of higher doses” value is “well tolerated”. Also, on ABCB1 (P-gp) [10], the “interaction with P-gp / B–A apparent permeability of control substrate” value was “significantly decreased”.

The values are drawn from PMC7612365 (Cancer Discovery, 2021).
